Reference: patent publication US9012493B2, “1-heterodiene derivative and pest control agent” (Nippon Soda Co., Ltd., priority 2009, dated 2015)

Tests used:
Type in all cases: in vivo
[1] = system: Cotton Aphid (Aphis Gossypii); test: Efficacy test against cotton aphid, spray on cucumber plant; conditions: 125 ppm, emulsifiable concentrate diluted with water, sprayed over cucumber plant with nymphs, after 5 days, 25° C.
Procedure: (§1) Test Examples of the pest control agent thus obtained according to the present invention are shown below. In respective Test Examples, the insecticidal rate (%) was determined by the following calculation equation. Insecticidal rate (%)=(number of dead pests/number of released pests)×100
The emulsifiable concentrate obtained according to Formulation of Formulation Example 2 was diluted with water so as to control the concentration of the compound to 125 ppm. Adults of cotton aphids were inoculated to a cucumber plant (approximately 10 days after sprouting) sown in a 3 sun/size pot (9 cm). After 1 day, adult aphids were removed and the diluted solution was sprayed over the cucumber plant on which delivered nymphs are parasitic. The pot was placed in a temperature-controlled room at a temperature of 25° C. and a humidity of 65%. After 5 days, life and death were examined and the insecticidal rate was determined. The test was repeated twice.

[2] = system: Rice Armyworm (Mythimna Separata); test: Efficacy test against rice armyworm, corn leaf dip; conditions: 125 ppm, emulsifiable concentrate diluted with water, corn leaves immersed, second instar larvae, after 5 days, 25° C.
Procedure: as §1
The emulsifiable concentrate obtained according to Formulation of Formulation Example 2 was diluted with water so as to control the concentration of the compound to 125 ppm. Leaves of corn were immersed in this diluted solution for 30 seconds and then air-dried. The leaves were put in a petri dish on which a filter paper is laid, and then five second instar larvae of rice armyworm were inoculated. After covering the petri dish with a glass lid, the petri dish was placed in a temperature-controlled room at a temperature of 25° C. and a humidity of 65%. After 5 days, life and death were examined and the insecticidal rate was determined. The test was repeated twice.

[3] = system: Sweetpotato Whitefly (Bemisia Tabaci); test: Efficacy test against sweetpotato whitefly, sprayed tomato leaf; conditions: 125 ppm, emulsifiable concentrate diluted with water, adults (type B), after 2 days, 25° C.
Procedure: as §1
The emulsifiable concentrate obtained according to Formulation of Formulation Example 2 was diluted with water so as to control the concentration of the compound to 125 ppm. The diluted solution was sprayed over a tomato leaf obtained by cutting and then air-dried. Using absorbent cotton, the leaf was fixed to a flask so that a front surface of the leaf faces upward. Seven pairs of adults of sweetpotato whitefly (type B) were inoculated in this container, and the container was placed in a temperature-controlled room at a temperature of 25° C. and a humidity of 65%. After 2 days, life and death were examined and the insecticidal rate was determined. The test was repeated twice.

[4] = system: Twospotted Spider Mite (Tetranychus Urticae Koch); test: Efficacy test against twospotted spider mite, spray on kidney bean plant; conditions: 125 ppm, wettable powder diluted with water, sprayed, female adults with resistance to an organophosphorus agent on kidney bean, after 3 days
Procedure: The wettable powder obtained according to Formulation of Formulation Example 1 was diluted with water so as to control the concentration of the compound to 125 ppm. Seventeen female adults of twospotted spider mite with resistance to an organophosphorus agent were inoculated on a first true leaf of a kidney bean plant (approximately 7 to 10 days after sprouting) sown in a 3 sun/size pot (9 cm). The diluted solution was sprayed. The pot was placed in a temperature-controlled room at a temperature of 25° C. and a humidity of 65%. After 3 days, the adulticidal rate was examined. The test was repeated twice.

| SMILES | insecticidal rate [1] [%] | insecticidal rate [2] [%] | insecticidal rate [3] [%] | adulticidal rate [4] [%] |
| --- | --- | --- | --- | --- |
| C=C1CCC(=CSc2ccccn2)C(=Nc2ccc(C)cc2)S1 [Compound 2-7] | 100 | – | – | – |
| C=C1CCC(=CSc2ccccc2)C(=Nc2ccc(OC)cc2)S1 [Compound 2-8] | 100 | 100 | 100 | – |
| C=C1CCC(=CSc2ccc(F)cc2)C(=Nc2ccc(OC)cc2)S1 [Compound 2-9] | 100 | 100 | 100 | – |
| C=C1SC(=Nc2ccc(OC)cc2)C(=CSc2ccccc2)CC1(C)C [Compound 2-16] | 100 | 100 | 100 | – |
| C=C1SC(=Nc2ccc(C)cc2)C(=CSc2ccc(OC)cc2)CC1(C)C [Compound 2-18] | 100 | 100 | 100 | – |
| C=C1SC(=Nc2ccc(C)cc2)C(=CSc2ccccc2OC)CC1(C)C [Compound 2-19] | 100 | 100 | 100 | – |
| COc1ccc(N=C2SC(=C(C)C)CCC2=CSc2ccc(F)cc2)cc1 [Compound 2-22] | 100 | 100 | 100 | – |
| COc1ccc(N=C2SC(=C(C)C)CCC2=CSc2ccccc2)cc1 [Compound 2-23] | 100 | – | – | – |
| C=C1SC(=Nc2cccc(OC)c2)C(=CSc2ccccc2)CC1(C)C [Compound 2-25] | 100 | 100 | 100 | – |
| C=C1SC(=Nc2ccc(C)cc2Cl)C(=CSc2ccccc2)CC1(C)C [Compound 2-26] | 100 | 100 | 100 | – |
| C=C1SC(=Nc2cccc(Cl)c2)C(=CSc2ccccc2)CC1(C)C [Compound 2-29] | 100 | 100 | 100 | – |
| C=C1SC(=Nc2ccc(OC)cc2OC)C(=CSc2ccccc2)CC1(C)C [Compound 2-30] | 100 | 100 | – | – |
| C=C1SC(=Nc2c(F)cccc2F)C(=CSc2ccccc2)CC1(C)C [Compound 2-31] | 100 | 100 | 100 | – |
| C=C1SC(=Nc2ccc(OC)cc2F)C(=CSc2ccccc2)CC1(C)C [Compound 2-33] | 100 | 100 | 100 | – |
| C=C1SC(=Nc2cccc(Cl)c2Cl)C(=CSc2ccccc2)CC1(C)C [Compound 2-37] | 100 | 100 | 100 | – |
| C=C1SC(=Nc2ccc3c(c2)OCO3)C(=CSc2ccccc2)CC1(C)C [Compound 2-39] | 100 | 100 | 100 | – |
| C=C1SC(=Nc2ccc(OC)cc2C)C(=CSc2ccc(OC)cc2)CC1(C)C [Compound 2-42] | 100 | 100 | 100 | – |
| C=C1SC(=Nc2ccc(OC)cc2)C(=CSc2ncccn2)CC1(C)C [Compound 2-47] | 100 | 100 | 100 | – |
| C=C1CCC(=CSc2ccccc2)C(=Nc2ccsc2)S1 [Compound 2-52] | 100 | 100 | 100 | – |
| C=C1SC(=Nc2ccccc2)C(=CSc2ccccc2)CC1(C)C [Compound 2-53] | 100 | 100 | 100 | – |
| C=C1SC(=Nc2ccccc2)C(=CSc2ccc(F)cc2)CC1(C)C [Compound 2-54] | 100 | 100 | 100 | – |
| C=C1SC(=Nc2ccc(OC)cc2)C(=COc2ccccc2)CC1(C)C [Compound 2-55] | 100 | 100 | 100 | – |

| SMILES | insecticidal rate [1] [%] | insecticidal rate [2] [%] | insecticidal rate [3] [%] | adulticidal rate [4] [%] |
| --- | --- | --- | --- | --- |
| C=C1SC(=Nc2ccc(C)cc2)C(=CSc2ccc(F)cc2)CC12CCOCC2 [Compound 2-57] | 100 | 100 | 100 | – |
| C=C1SC(=Nc2ccc(OC)cc2)C(=CSC2CCCC2)CC1(C)C [Compound 2-58] | 100 | 100 | 100 | – |
| C=C1SC(=Nc2c(C)cccc2C)C(=CSc2ccccc2)CC1(C)C [Compound 2-62] | 100 | 100 | 100 | – |
| C=C1SC(=Nc2c(C)cc(C)cc2C)C(=CSc2ccccc2)CC1(C)C [Compound 2-63] | 100 | 100 | 100 | – |
| C=C1SC(=Nc2c(F)cc(OC)cc2F)C(=CSc2ccccc2)CC1(C)C [Compound 2-65] | 100 | 100 | 100 | – |
| C=C1SC(=Nc2c(C)cc(C)cc2C)C(=CSc2cccs2)CC1(C)C [Compound 2-66] | 100 | 100 | 100 | – |
| C=C1SC(=Nc2c(C)cc(OC)cc2C)C(=CSc2ccccc2)CC1(C)C [Compound 2-67] | 100 | 100 | 100 | – |
| C=C1SC(=Nc2ccc(C)cc2)C(=CSc2cccc(Cl)n2)CC1(C)C [Compound 2-91] | 100 | 100 | 100 | – |
| C=C1SC(=Nc2ccc(C)cc2)C(=CSc2ccoc2C)CC1(C)C [Compound 2-93] | 100 | 100 | 100 | – |
| C=C1SC(=Nc2ccc(C)cc2)C(=CSc2ccc(N(C)C)cc2)CC1(C)C [Compound 2-97] | 100 | 100 | 100 | – |
| C=C1SC(=Nc2ccc(C)cc2)C(=CSc2nccc(C(F)(F)F)n2)CC1(C)C [Compound 2-98] | 100 | 100 | 100 | – |
| C=C1SC(=Nc2ccc(C)cc2)C(=CSc2cccc(C(C)=O)c2)CC1(C)C [Compound 2-105] | – | 100 | – | 100 |
| C=C1SC(=Nc2ccc(C)cc2)C(=CSc2ccccc2C)CC1(C)C [Compound 2-111] | – | 100 | – | 100 |
| C=C1SC(=Nc2ccc(C)cc2)C(=CSCc2ccccc2)CC1(C)C [Compound 2-112] | 100 | 100 | 100 | – |
| C=C1SC(=Nc2ccc(C)cc2)C(=CSc2ccc3ccccc3n2)CC1(C)C [Compound 2-113] | – | 100 | – | 100 |
| C=C1SC(=Nc2ccc(C)cc2)C(=CSc2nccc(C)n2)CC1(C)C [Compound 2-121] | 100 | 100 | 100 | – |
| C#CCSC=C1CC(C)(C)C(=C)SC1=Nc1ccc(C)cc1 [Compound 2-122] | 100 | 100 | 100 | – |
| C=C1SC(=Nc2ccc(C)cc2)C(=CSc2cc(C(F)(F)F)ccn2)CC1(C)C [Compound 2-126] | 100 | 100 | – | – |
| C=C1SC(=Nc2ccc(OC)cc2)C(=CSc2nccc(C)n2)CC1(C)C [Compound 2-127] | 100 | 100 | 100 | – |
| C=C1SC(=Nc2ccccc2)C(=CSc2nccc(C)n2)CC1(C)C [Compound 2-128] | 100 | 100 | 100 | – |
| C=C1SC(=Nc2ccccc2)C(=CSc2cccs2)CC1(C)C [Compound 2-129] | 100 | 100 | 100 | – |
| C=C1SC(=Nc2ccc(C)c(C)c2)C(=CSc2nccc(C)n2)CC1(C)C [Compound 2-132] | 100 | 100 | 100 | – |
